Patent publication US20030162777A1, “Novel N-acylated heterocycles” (Recordati S.A., priority 2001, published 2003)

The compounds below were run against T1, human 5HT1A-serotonergic receptor (Homo sapiens, UniProt P08908) (assay: Radioligand binding to recombinant 5-HT1A receptors). Details: [3H]8-OH-DPAT 1 nM, membranes of HeLa cells with human 5-HT1A receptor; Ki from IC50 by Cheng & Prusoff; read-out: Binding affinity for 5HT1A receptors, Ki.
T1 construct: expressed in transfected cells; host or cells: HeLa (human cell line), stably transfected; cell membranes used
T1 sequence (P08908 1-422): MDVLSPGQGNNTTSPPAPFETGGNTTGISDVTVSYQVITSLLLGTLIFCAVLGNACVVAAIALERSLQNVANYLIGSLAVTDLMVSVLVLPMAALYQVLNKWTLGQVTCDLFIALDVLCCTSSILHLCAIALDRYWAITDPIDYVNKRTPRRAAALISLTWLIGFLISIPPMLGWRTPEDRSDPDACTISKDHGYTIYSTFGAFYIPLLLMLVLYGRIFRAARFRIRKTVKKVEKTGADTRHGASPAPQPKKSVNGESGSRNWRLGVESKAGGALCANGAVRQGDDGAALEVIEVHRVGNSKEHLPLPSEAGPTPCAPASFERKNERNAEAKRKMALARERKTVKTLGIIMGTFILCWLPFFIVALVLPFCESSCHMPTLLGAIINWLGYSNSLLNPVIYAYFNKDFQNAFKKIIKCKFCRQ
Summary of the method: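 Membranes from HeLa cells stably expressing human 5-HT1A incubated 30 min at 30 °C with 1 nM [3H]8-OH-DPAT and compound in 50 mM Tris-HCl pH 7.4, 2.5 mM MgCl2, […] pargyline. Nonspecific binding defined with 10 μM 5-HT; filtration readout, IC50 converted to Ki via Cheng–Prusoff.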

| Compound | Ki [nM] |
| --- | --- |
| O=C(COc1ccccc1Cl)N1c2ccccc2CCC1CN1CCN(c2cccc3[nH]ccc23)CC1 (stereo not shown) [Example 68A50, 1-[1-[2-(2-Chlorophenoxy)acetyl]-1,2,3,4-tetrahydroquinoline-2-ylmethyl]-4-(4-indolyl)piperazine] | 27.3 |
| O=C(COc1ccc(Cl)cc1)N1c2ccccc2CCC1CN1CCN(c2cccc3[nH]ccc23)CC1 (stereo not shown) [Example 68A51, 1-[1-[2-(4-Chlorophenoxy)acetyl]-1,2,3,4-tetrahydroquinoline-2-ylmethyl]-4-(4-indolyl)piperazine] | 15.6 |
| O=C(c1ccc(N2CCOCC2)nc1)N1c2ccccc2CCC1CN1CCN(c2cccc3[nH]ccc23)CC1 (stereo not shown) [Example 68A52, 1-(4-Indolyl)-4-[1-[2-(4-morpholinyl)pyridine-5-carbonyl]-1,2,3,4-tetrahydroquinoline-2-ylmethyl]piperazine] | 18.3 |
| O=C1CCC(CC(=O)N2c3ccccc3CCC2CN2CCN(c3cccc4[nH]ccc34)CC2)N1 (stereo not shown) [Example 68A54, 1-(4-Indolyl)-4-[1-[2-(5-oxopyrrolidin-2yl)acetyl]-1,2,3,4-tetrahydroquinoline-2-ylmethyl]piperazine] | 41.4 |
| O=C(CCOc1ccccc1)N1c2ccccc2CCC1CN1CCN(c2cccc3[nH]ccc23)CC1 (stereo not shown) [Example 68A61, 1-(4-Indolyl)-4-[1-(3-phenoxypropionyl)-1,2,3,4-tetrahydroquinoline-2-ylmethyl]piperazine] | 19.7 |
| O=C(Cc1ccccc1F)N1c2ccccc2CCC1CN1CCN(c2cccc3[nH]ccc23)CC1 (stereo not shown) [Example 68A63, 1-(4-Indolyl)-4-[1-[2-(2-fluorophenylacetyl)]-1,2,3,4-tetrahydroquinoline-2-ylmethyl]piperazine] | 8.7 |
| O=C(Cc1ccccc1C(F)(F)F)N1c2ccccc2CCC1CN1CCN(c2cccc3[nH]ccc23)CC1 (stereo not shown) [Example 68A64, 1-(4-Indolyl)-4-[1-[2-(2-trifluoromethylphenylacetyl)]-1,2,3,4-tetrahydroquinoline-2-ylmethyl]piperazine] | 13.4 |
| O=C(CCCc1ccccc1)N1c2ccccc2CCC1CN1CCN(c2cccc3[nH]ccc23)CC1 (stereo not shown) [Example 68A66, 1-(4-Indolyl)-1-[1-(4-phenylbutanoyl)-1,2,3,4-tetrahydroquinoline-2-ylmethyl]piperazine] | 19.6 |

Now from value to compound:

| Ki [nM] | Compound |
| --- | --- |
| 14.3 | Cc1oc(S(=O)(=O)N2CCCCC2)cc1C(=O)N1c2ccccc2CCC1CN1CCN(c2cccc3[nH]ccc23)CC1 (stereo not shown) [Example 68A55, 1-(4-Indolyl)-4-[1-(2-methyl-5-piperidin-1-ylsulfonylfuran-3-carbonyl)-1,2,3,4-tetrahydroquinoline-2-ylmethyl]piperazine] |
| 26.8 | Cc1oc(S(=O)(=O)N2CCOCC2)cc1C(=O)N1c2ccccc2CCC1CN1CCN(c2cccc3[nH]ccc23)CC1 (stereo not shown) [Example 68A56, 1-(4-Indolyl)-4-[1-(2-methyl-5-morpholin-4-ylsulfonylfuran-3-carbonyl)-1,2,3,4-tetrahydroquinoline-2-ylmethyl]piperazine] |
| 33 | Cc1ccc(S(=O)(=O)n2ccc(C(=O)N3c4ccccc4CCC3CN3CCN(c4cccc5[nH]ccc45)CC3)c2)cc1 (stereo not shown) [Example 68A57, 1-(4-Indolyl)-4-[1-[1-(4-methylphenylsulphonyl)pyrrole-3-carbonyl]-1,2,3,4-tetrahydroquinoline-2-ylmethyl]piperazine] |
| 46.5 | Cc1oc(S(=O)(=O)N2CCCC2)cc1C(=O)N1c2ccccc2CCC1CN1CCN(c2cccc3[nH]ccc23)CC1 (stereo not shown) [Example 68A59, 1-(4-Indolyl)-4-[1-(2-methyl-5-pyrrolidin-1-ylsulfonylfuran-3-carbonyl)-1,2,3,4-tetrahydroquinoline-2-ylmethyl]piperazine] |
| 9.1 | COc1cccc(C(=O)N2c3ccccc3CCC2CN2CCN(c3cccc4[nH]ccc34)CC2)c1 (stereo not shown) [Example 68A67, 1-(4-Indolyl)-4-[1-(3-methoxybenzoyl)-1,2,3,4-tetrahydroquinoline-2-ylmethyl]piperazine] |
